Data on 10 molecules can be found in publication PMC8196787, “Design and Pharmacodynamics of Recombinant Fungus Defensin NZL with Improved Activity against Staphylococcus hyicus In Vitro and In Vivo” (International Journal of Molecular Sciences, 2021).

Experiment [1] has as its system S. aureus ATCC 43300. In words: microbe, parasite or virus in culture. The conditions noted are these: S. aureus ATCC 43300; microbroth dilution, MHB, 1 × 10^5 CFU/mL, 37 °C, 16–20 h, peptides 1–256 μg/mL, triplicate. In kind it is cell-based. Here is the method:
(§1) The microbroth dilution method was used to evaluate the MIC values of new derivative peptides. […] The MIC value was defined as the lowest concentration where no visible bacteria growth occurred after overnight incubation. CRO was used as the positive control. All assays were conducted in triplicate.
A general note: In broth dilution the organism is exposed to a series of concentrations in liquid medium.

Experiment [2] relates to S. hyicus ACCC 61734. Description: microbe, parasite or virus in culture. The experiment is classed as cell-based. The conditions noted are these: S. hyicus ACCC 61734 (clinical strain); microbroth dilution, MHB, 37 °C, 16–20 h, triplicate. On the procedure:
as §1

In experiment [3] the test system is isolated S. hyicus (n = 207). The conditions noted are these: n = 207 isolates, Japan; cited from earlier work. The source says: Staphylococcus hyicus is one of the opportunistic and commensal pathogens which can cause acute infections to animals and humans. It was reported that exfoliative toxins-producing S. hyicus is primarily known as the most common causative agent of exudative epidermitis in pigs, which occurs typically as an acute skin lesions characterized by sebaceous exudation, exfoliation, and vesicle formation. This disease with prominent morbidity and mortality occurs worldwide, resulting in considerable economic losses in the swine industry. To date, piglets infected with S. hyicus are fr ...

≈ marks a conversion by molar mass, not a printed value. Positions of bridges follow the written chain, without caps; N, C: chain ends. Residues, ends and D or L forms follow the SMILES beside them.

`CC[C@H](C)[C@@H]1NC(=O)[C@H](CO)NC(=O)[C@H](CCCCN)NC(=O)[C@@H]2CSSC[C@@H](C(=O)N[C@@H](Cc3ccc(O)cc3)C(=O)O)NC(=O)[C@H](CCCCN)NC(=O)[C@@H]3CSSC[C@H](NC(=O)[C@H](CCC(N)=O)NC(=O)[C@H](CC(C)C)NC(=O)[C@H](CC(=O)O)NC(=O)[C@H](CC(=O)O)NC(=O)[C@H](CCC(=O)O)NC(=O)[C@H](CO)NC(=O)[C@H](Cc4c[nH]c5ccccc45)NC(=O)[C@@H]4CCCN4C(=O)CNC(=O)[C@H](CC(N)=O)NC(=O)[C@@H](NC(=O)CNC(=O)[C@H](Cc4ccccc4)NC(=O)CN)CSSC[C@H](NC(=O)[C@H](Cc4ccc(O)cc4)NC(=O)CNC(=O)CNC(=O)[C@H](CCCCN)NC(=O)[C@H](Cc4ccc(O)cc4)NC(=O)CNC(=O)[C@H](CCCCN)NC1=O)C(=O)N[C@@H](C)C(=O)N[C@@H](CCCNC(=N)N)C(=O)NCC(=O)NCC(=O)N[C@@H](Cc1ccccc1)C(=O)N[C@@H](C(C)C)C(=O)N3)C(=O)N[C@@H](Cc1c[nH]cn1)C(=O)N[C@@H](CC(N)=O)C(=O)N[C@@H](Cc1c[nH]cn1)C(=O)N2` [Peptide 7] (H-GFGCNGPWSEDDLQCHNHCKSIKGYKGGYCARGGFVCKCY-OH; disulfide 4-30, 15-37, 19-39; N-terminus and C-terminus assumed): the MIC was found to be 2 µg/mL (≈ 0.456 µM) in experiment [1] and 4 µg/mL (≈ 0.912 µM) in experiment [2].

In the case of `CC[C@H](C)[C@@H]1NC(=O)[C@H](CO)NC(=O)[C@H](CCCCN)NC(=O)[C@@H]2CSSC[C@@H](C(=O)N[C@@H](Cc3ccc(O)cc3)C(=O)O)NC(=O)[C@H](CCCCN)NC(=O)[C@@H]3CSSC[C@H](NC(=O)[C@H](CCCNC(=N)N)NC(=O)[C@H]([C@@H](C)CC)NC(=O)[C@H](CC(=O)O)NC(=O)[C@H](CC(=O)O)NC(=O)[C@H](CCC(=O)O)NC(=O)[C@H](CO)NC(=O)[C@H](Cc4c[nH]c5ccccc45)NC(=O)[C@@H]4CCCN4C(=O)CNC(=O)[C@H](CC(N)=O)NC(=O)[C@@H](NC(=O)CNC(=O)[C@H](Cc4ccccc4)NC(=O)CN)CSSC[C@H](NC(=O)[C@H](Cc4ccc(O)cc4)NC(=O)CNC(=O)CNC(=O)[C@H](CCCCN)NC(=O)[C@H](Cc4ccc(O)cc4)NC(=O)CNC(=O)[C@H](CCCCN)NC1=O)C(=O)N[C@@H](C)C(=O)N[C@@H](CO)C(=O)N[C@@H](C)C(=O)NCC(=O)N[C@@H](Cc1ccccc1)C(=O)N[C@@H](C(C)C)C(=O)N3)C(=O)N[C@@H](Cc1c[nH]cn1)C(=O)N[C@@H](CC(N)=O)C(=O)N[C@@H](Cc1c[nH]cn1)C(=O)N2` [Peptide 8] (H-GFGCNGPWSEDDIRCHNHCKSIKGYKGGYCASAGFVCKCY-OH; disulfide 4-30, 15-37, 19-39; N-terminus and C-terminus assumed), the MIC was found to be 64 µg/mL (≈ 14.7 µM) in experiment [1] and 128 µg/mL (≈ 29.4 µM) in experiment [2].

`CC[C@H](C)[C@@H]1NC(=O)[C@H](CO)NC(=O)[C@H](CCCCN)NC(=O)[C@@H]2CSSC[C@@H](C(=O)N[C@@H](Cc3ccc(O)cc3)C(=O)O)NC(=O)[C@H](CCCCN)NC(=O)[C@@H]3CSSC[C@H](NC(=O)[C@H](CCCCN)NC(=O)[C@H](CC(C)C)NC(=O)[C@H](CC(=O)O)NC(=O)[C@H](CC(=O)O)NC(=O)[C@H](CCC(=O)O)NC(=O)[C@H](CCC(N)=O)NC(=O)[C@H](Cc4c[nH]c5ccccc45)NC(=O)[C@@H]4CCCN4C(=O)CNC(=O)[C@H](CC(N)=O)NC(=O)[C@@H](NC(=O)CNC(=O)[C@H](Cc4ccccc4)NC(=O)CN)CSSC[C@H](NC(=O)[C@H](Cc4ccc(O)cc4)NC(=O)CNC(=O)CNC(=O)[C@H](CCCCN)NC(=O)[C@H](Cc4ccc(O)cc4)NC(=O)CNC(=O)[C@H](CCCCN)NC1=O)C(=O)N[C@@H](C)C(=O)N[C@@H](CO)C(=O)N[C@@H](C)C(=O)NCC(=O)N[C@@H](Cc1ccccc1)C(=O)N[C@@H](C(C)C)C(=O)N3)C(=O)N[C@@H](Cc1c[nH]cn1)C(=O)N[C@@H](CC(N)=O)C(=O)N[C@@H](Cc1c[nH]cn1)C(=O)N2` [Peptide 9] (H-GFGCNGPWQEDDLKCHNHCKSIKGYKGGYCASAGFVCKCY-OH; disulfide 4-30, 15-37, 19-39; N-terminus and C-terminus assumed): the MIC was found to be 4 µg/mL (≈ 0.915 µM) in experiment [1] and 8 µg/mL (≈ 1.83 µM) in experiment [2].

With `CC[C@H](C)[C@@H]1NC(=O)[C@H](CO)NC(=O)[C@H](CCCCN)NC(=O)[C@@H]2CSSC[C@@H](C(=O)N[C@@H](Cc3ccc(O)cc3)C(=O)O)NC(=O)[C@H](CCCCN)NC(=O)[C@@H]3CSSC[C@H](NC(=O)[C@H](CCC(N)=O)NC(=O)[C@H]([C@@H](C)CC)NC(=O)[C@H](CC(=O)O)NC(=O)[C@H](CC(=O)O)NC(=O)[C@H](CCC(=O)O)NC(=O)[C@H]([C@@H](C)O)NC(=O)[C@H](Cc4c[nH]c5ccccc45)NC(=O)[C@@H]4CCCN4C(=O)CNC(=O)[C@H](CC(N)=O)NC(=O)[C@@H](NC(=O)CNC(=O)[C@H](Cc4ccccc4)NC(=O)CN)CSSC[C@H](NC(=O)[C@H](Cc4ccc(O)cc4)NC(=O)CNC(=O)CNC(=O)[C@H](CCCCN)NC(=O)[C@H](Cc4ccc(O)cc4)NC(=O)CNC(=O)[C@H](CCCCN)NC1=O)C(=O)N[C@@H](C)C(=O)N[C@@H](CCCNC(=N)N)C(=O)NCC(=O)NCC(=O)N[C@@H](Cc1ccccc1)C(=O)N[C@@H](C(C)C)C(=O)N3)C(=O)N[C@@H](Cc1c[nH]cn1)C(=O)N[C@@H](CC(N)=O)C(=O)N[C@@H](Cc1c[nH]cn1)C(=O)N2` [Peptide 10] (H-GFGCNGPWTEDDIQCHNHCKSIKGYKGGYCARGGFVCKCY-OH; disulfide 4-30, 15-37, 19-39; N-terminus and C-terminus assumed), the MIC in experiment [1] and in experiment [2] was more than 128 µg/mL each time.

Turning to `CC1(C)S[C@@H]2[C@H](NC(=O)[C@H](N)c3ccccc3)C(=O)N2[C@H]1C(=O)O` [ampicillin], the “Isolated S. hyicus resistant to the drug” value in experiment [3] is recorded as 76.8%.

`O=C(N[C@H](CO)[C@H](O)c1ccc([N+](=O)[O-])cc1)C(Cl)Cl` [chloramphenicol]: the “Isolated S. hyicus resistant to the drug” value in experiment [3] is recorded as 24.2%.

Turning to `C[C@H]1c2cccc(O)c2C(=O)C2=C(O)[C@]3(O)C(=O)C(C(N)=O)=C(O)[C@@H](N(C)C)[C@@H]3[C@@H](O)[C@@H]21` [doxycycline], the “Isolated S. hyicus resistant to the drug” value in experiment [3] was 1.4%.

As for `CC[C@H]1OC(=O)[C@H](C)[C@@H](O[C@H]2C[C@@](C)(OC)[C@@H](O)[C@H](C)O2)[C@H](C)[C@@H](O[C@@H]2O[C@H](C)C[C@H](N(C)C)[C@H]2O)[C@](C)(O)C[C@@H](C)C(=O)[C@H](C)[C@@H](O)[C@]1(C)O` [erythromycin], the “Isolated S. hyicus resistant to the drug” value in experiment [3] is 56%.

With `NC[C@H]1O[C@H](O[C@H]2[C@H](O)[C@@H](O[C@H]3O[C@H](CO)[C@@H](O)[C@H](N)[C@H]3O)[C@H](N)C[C@@H]2N)[C@H](O)[C@@H](O)[C@@H]1O` [kanamycin], the “Isolated S. hyicus resistant to the drug” value in experiment [3] was 19.8%.

Consider penicillin, for which the “Isolated S. hyicus resistant to the drug” value in experiment [3] is listed as 76.8%.
